Numbered stars: 1 amine (or outer) side, 2 acyl side, 3 side chain; on linkers, the order of the positions; unused ones are H or OH. Bridge positions count the residues as written; N and C are the ends. Square brackets hold non-standard residues; d marks the D form. Peptide text beside a SMILES is read from it. * marks the point of attachment. hPhe(3-Cl-4-CF3) = N[C@@H](CCc1ccc(C(F)(F)F)c(Cl)c1)C(=O)O; hPhe(3-F,4-CF3) = N[C@@H](CCc1ccc(C(F)(F)F)c(F)c1)C(=O)O; X123 = O=C([C@@H]1C[C@H](n2ccnn2)CN1[*:1])[*:2]; X31 = O=C([C@@H]1C[C@@H](n2ccnn2)CN1[*:1])[*:2]; NMeAla(cPent) = CN[C@@H](CC1CCCC1)C(=O)O; oXylylene = c1ccc(C[*:2])c(C[*:1])c1; NMeCha = CN[C@@H](CC1CCCCC1)C(=O)O; cisHyp = O=C(O)[C@@H]1C[C@H](O)CN1; Hyp = O=C(O)[C@@H]1C[C@@H](O)CN1; NMeD = CN[C@@H](CC(=O)O)C(=O)O; Benzyl(4-Cl) = Clc1ccc(C*)cc1; NMeL = CN[C@@H](CC(C)C)C(=O)O; NMeV = CN[C@H](C(=O)O)C(C)C; Piperidide = C1CCN(*)CC1; X57 = FC(F)Oc1ccc(C*)cc1; Ac5c = NC1(C(=O)O)CCCC1; X106 = Clc1cccc(C*)c1; X94 = COc1cccc(C*)c1; Meb = Cc1ccc(C*)cc1; X87 = Clc1ccccc1C*; Sar = CNCC(=O)O

Data on 17 compounds can be found in BindingDB's records for patent US20240148821 (Chugai Seiyaku Kabushiki Kaisha, 2024).

This test deals with GTPase KRas (G12D) and Son of Sevenless Homolog 1 (SOS) (Homo sapiens, UniProt P01116, G12D). Description: AlphaScreen Assay.
Sequence of GTPase KRas (G12D) and Son of Sevenless Homolog 1 (SOS) (P01116 whole entry G12D): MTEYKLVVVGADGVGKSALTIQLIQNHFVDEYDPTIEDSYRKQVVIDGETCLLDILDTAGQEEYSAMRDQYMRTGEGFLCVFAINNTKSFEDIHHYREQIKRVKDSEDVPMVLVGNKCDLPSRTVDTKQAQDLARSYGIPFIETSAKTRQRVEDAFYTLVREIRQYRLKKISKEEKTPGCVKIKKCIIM
Sequence of GTPase KRas (G12D) and Son of Sevenless Homolog 1 (SOS) (Q07889 whole entry, further chain): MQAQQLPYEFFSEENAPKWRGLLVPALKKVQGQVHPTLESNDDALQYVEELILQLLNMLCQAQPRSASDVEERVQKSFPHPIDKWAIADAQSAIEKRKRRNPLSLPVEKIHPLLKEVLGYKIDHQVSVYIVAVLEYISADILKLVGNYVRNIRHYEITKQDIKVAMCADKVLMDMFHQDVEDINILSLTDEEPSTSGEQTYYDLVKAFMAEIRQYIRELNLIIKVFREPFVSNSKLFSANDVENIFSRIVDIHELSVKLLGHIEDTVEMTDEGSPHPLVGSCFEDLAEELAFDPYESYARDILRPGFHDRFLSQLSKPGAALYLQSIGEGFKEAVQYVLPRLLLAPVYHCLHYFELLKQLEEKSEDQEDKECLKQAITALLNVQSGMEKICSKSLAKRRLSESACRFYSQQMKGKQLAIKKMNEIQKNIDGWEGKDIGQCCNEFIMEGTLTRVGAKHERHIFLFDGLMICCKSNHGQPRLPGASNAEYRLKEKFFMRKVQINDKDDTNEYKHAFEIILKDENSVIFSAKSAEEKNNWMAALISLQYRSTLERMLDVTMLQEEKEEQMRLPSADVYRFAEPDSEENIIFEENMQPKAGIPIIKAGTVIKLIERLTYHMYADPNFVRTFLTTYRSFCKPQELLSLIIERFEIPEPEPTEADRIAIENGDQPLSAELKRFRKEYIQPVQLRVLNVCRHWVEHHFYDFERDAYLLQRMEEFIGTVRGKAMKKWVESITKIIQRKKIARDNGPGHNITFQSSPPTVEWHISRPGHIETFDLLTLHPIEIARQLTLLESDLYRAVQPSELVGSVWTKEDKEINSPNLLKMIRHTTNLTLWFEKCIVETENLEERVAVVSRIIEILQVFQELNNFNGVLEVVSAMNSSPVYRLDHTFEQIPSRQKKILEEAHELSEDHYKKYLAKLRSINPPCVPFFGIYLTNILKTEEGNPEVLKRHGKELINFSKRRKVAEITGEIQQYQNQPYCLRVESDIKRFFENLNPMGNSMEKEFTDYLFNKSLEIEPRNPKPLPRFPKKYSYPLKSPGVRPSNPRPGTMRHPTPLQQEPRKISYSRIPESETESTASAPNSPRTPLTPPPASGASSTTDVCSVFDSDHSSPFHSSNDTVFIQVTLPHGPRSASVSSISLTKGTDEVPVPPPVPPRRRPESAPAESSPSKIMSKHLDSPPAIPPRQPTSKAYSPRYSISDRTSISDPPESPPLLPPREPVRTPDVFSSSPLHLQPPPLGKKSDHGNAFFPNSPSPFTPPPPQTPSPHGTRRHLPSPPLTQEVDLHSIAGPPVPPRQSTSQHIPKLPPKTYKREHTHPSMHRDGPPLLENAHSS
Compound `CC[C@H](C)[C@@H]1NC(=O)[C@H](CC(C)C)N(C)C(=O)C[C@@H](C(=O)N2CCCCC2)N(C)C(=O)[C@H](C(C)C)N(C)C(=O)C2(CCCC2)NC(=O)[C@@H]2C[C@@H](n3ccnn3)CN2C(=O)[C@H](CCc2ccc(C(F)(F)F)c(Cl)c2)NC(=O)CN(C)C(=O)[C@H](CC2CCCC2)N(C)C(=O)CN(C)C(=O)CN(C)C1=O` [US20240148821, Compound 2113] ([NMeL]I[Sar][Sar][NMeAla(cPent)][Sar][hPhe(3-Cl-4-CF3)][X31][Ac5c][NMeV][NMeD]-Piperidide; lactam N-11) displayed an IC50 of 0.47 nM.

`CC[C@H](C)[C@@H]1NC(=O)[C@H](CC(C)C)N(C)C(=O)C[C@@H](C(=O)N2CCCCC2)N(C)C(=O)[C@H](C(C)C)N(C)C(=O)C2(CCCC2)NC(=O)[C@@H]2C[C@H](n3ccnn3)CN2C(=O)[C@H](CCc2ccc(C(F)(F)F)c(Cl)c2)NC(=O)CN(C)C(=O)[C@H](CC2CCCC2)N(C)C(=O)CN(C)C(=O)CN(C)C1=O` [US20240148821, Compound 2115] ([NMeL]I[Sar][Sar][NMeAla(cPent)][Sar][hPhe(3-Cl-4-CF3)][X123][Ac5c][NMeV][NMeD]-Piperidide; lactam N-11) displayed a half-maximal inhibitory concentration (IC50) of 1.1 nM.

Consider `CCO[C@@H]1C[C@H]2C(=O)NC3(CCCC3)C(=O)N(C)[C@@H](CC(C)C)C(=O)N(C)[C@H](C(=O)N3CCCCC3)CC(=O)N(C)[C@@H](CC(C)C)C(=O)N[C@@H]([C@@H](C)CC)C(=O)N(C)CC(=O)N(C)CC(=O)N(C)[C@@H](CC3CCCCC3)C(=O)N(C)CC(=O)N[C@@H](CCc3ccc(C(F)(F)F)c(F)c3)C(=O)N2C1` [US20240148821, Compound 2118] ([NMeL]I[Sar][Sar][NMeCha][Sar][hPhe(3-F,4-CF3)][Hyp](Et)[Ac5c][NMeL][NMeD]-Piperidide; lactam N-11), for which half-maximal inhibition (IC50) was put at 3.2 nM.

In turn, `CC[C@H](C)[C@@H]1NC(=O)[C@H](CC(C)C)N(C)C(=O)C[C@@H](C(=O)N2CCCCC2)N(C)C(=O)[C@H](CC(C)C)N(C)C(=O)C2(CCCC2)NC(=O)[C@@H]2C[C@H](OCc3cccc(Cl)c3)CN2C(=O)[C@H](CCc2ccc(C(F)(F)F)c(F)c2)NC(=O)CN(C)C(=O)[C@H](CC2CCCCC2)N(C)C(=O)CN(C)C(=O)CN(C)C1=O` [US20240148821, Compound 2126] ([NMeL]I[Sar][Sar][NMeCha][Sar][hPhe(3-F,4-CF3)][cisHyp](X106)[Ac5c][NMeL][NMeD]-Piperidide; lactam N-11) yielded an IC50 of 37 nM.

The compound `CCO[C@H]1C[C@H]2C(=O)NC3(CCCC3)C(=O)N(C)[C@@H](CC(C)C)C(=O)N(C)[C@H](C(=O)N3CCCCC3)CC(=O)N(C)[C@@H](CC(C)C)C(=O)N[C@@H]([C@@H](C)CC)C(=O)N(C)CC(=O)N(C)CC(=O)N(C)[C@@H](CC3CCCCC3)C(=O)N(C)CC(=O)N[C@@H](CCc3ccc(C(F)(F)F)c(F)c3)C(=O)N2C1` [US20240148821, Compound 2127] ([NMeL]I[Sar][Sar][NMeCha][Sar][hPhe(3-F,4-CF3)][cisHyp](Et)[Ac5c][NMeL][NMeD]-Piperidide; lactam N-11) gave an IC50 of 4.5 nM.

With `CC[C@H](C)[C@@H]1NC(=O)[C@H](CC(C)C)N(C)C(=O)C[C@@H](C(=O)N2CCCCC2)N(C)C(=O)[C@H](CC(C)C)N(C)C(=O)C2(CCCC2)NC(=O)[C@@H]2C[C@@H](OCc3ccc(OC(F)F)cc3)CN2C(=O)[C@H](CCc2ccc(C(F)(F)F)c(F)c2)NC(=O)CN(C)C(=O)[C@H](CC2CCCCC2)N(C)C(=O)CN(C)C(=O)CN(C)C1=O` [US20240148821, Compound 2128] ([NMeL]I[Sar][Sar][NMeCha][Sar][hPhe(3-F,4-CF3)][Hyp](X57)[Ac5c][NMeL][NMeD]-Piperidide; lactam N-11), 15 nM corresponded to half-maximal inhibition (IC50).

Compound `CC[C@H](C)[C@@H]1NC(=O)[C@H](CC(C)C)N(C)C(=O)C[C@@H](C(=O)N2CCCCC2)N(C)C(=O)[C@H](CC(C)C)N(C)C(=O)C2(CCCC2)NC(=O)[C@@H]2C[C@H](OCc3ccc(Cl)cc3)CN2C(=O)[C@H](CCc2ccc(C(F)(F)F)c(F)c2)NC(=O)CN(C)C(=O)[C@H](CC2CCCCC2)N(C)C(=O)CN(C)C(=O)CN(C)C1=O` [US20240148821, Compound 2129] ([NMeL]I[Sar][Sar][NMeCha][Sar][hPhe(3-F,4-CF3)][cisHyp](Benzyl(4-Cl))[Ac5c][NMeL][NMeD]-Piperidide; lactam N-11) gave an IC50 of 46 nM.

Compound `CC[C@H](C)[C@@H]1NC(=O)[C@H](CC(C)C)N(C)C(=O)C[C@@H](C(=O)N2CCCCC2)N(C)C(=O)[C@H](CC(C)C)N(C)C(=O)C2(CCCC2)NC(=O)[C@@H]2C[C@@H](OCc3ccc(C)cc3)CN2C(=O)[C@H](CCc2ccc(C(F)(F)F)c(F)c2)NC(=O)CN(C)C(=O)[C@H](CC2CCCCC2)N(C)C(=O)CN(C)C(=O)CN(C)C1=O` [US20240148821, Compound 2130] ([NMeL]I[Sar][Sar][NMeCha][Sar][hPhe(3-F,4-CF3)][Hyp](Meb)[Ac5c][NMeL][NMeD]-Piperidide; lactam N-11) returned an IC50 of 10 nM.

In turn, `CC[C@H](C)[C@@H]1NC(=O)[C@H](CC(C)C)N(C)C(=O)C[C@@H](C(=O)N2CCCCC2)N(C)C(=O)[C@H](CC(C)C)N(C)C(=O)C2(CCCC2)NC(=O)[C@@H]2C[C@@H](OCc3cccc(OC)c3)CN2C(=O)[C@H](CCc2ccc(C(F)(F)F)c(F)c2)NC(=O)CN(C)C(=O)[C@H](CC2CCCCC2)N(C)C(=O)CN(C)C(=O)CN(C)C1=O` [US20240148821, Compound 2131] ([NMeL]I[Sar][Sar][NMeCha][Sar][hPhe(3-F,4-CF3)][Hyp](X94)[Ac5c][NMeL][NMeD]-Piperidide; lactam N-11) yielded an IC50 of 9.8 nM.

`CC[C@H](C)[C@@H]1NC(=O)[C@H](CC(C)C)N(C)C(=O)C[C@@H](C(=O)N2CCCCC2)N(C)C(=O)[C@H](CC(C)C)N(C)C(=O)C2(CCCC2)NC(=O)[C@@H]2C[C@H](OCc3ccccc3Cl)CN2C(=O)[C@H](CCc2ccc(C(F)(F)F)c(F)c2)NC(=O)CN(C)C(=O)[C@H](CC2CCCCC2)N(C)C(=O)CN(C)C(=O)CN(C)C1=O` [US20240148821, Compound 2132] ([NMeL]I[Sar][Sar][NMeCha][Sar][hPhe(3-F,4-CF3)][cisHyp](X87)[Ac5c][NMeL][NMeD]-Piperidide; lactam N-11) displayed an IC50 of 91 nM.

As to `CC[C@H](C)[C@@H]1NC(=O)[C@H](CC(C)C)N(C)C(=O)C[C@@H](C(=O)N2CCCCC2)N(C)C(=O)[C@H](CC(C)C)N(C)C(=O)C2(CCCC2)NC(=O)[C@@H]2C[C@@H](OCc3ccc(Cl)cc3)CN2C(=O)[C@H](CCc2ccc(C(F)(F)F)c(F)c2)NC(=O)CN(C)C(=O)[C@H](CC2CCCCC2)N(C)C(=O)CN(C)C(=O)CN(C)C1=O` [US20240148821, Compound 2133] ([NMeL]I[Sar][Sar][NMeCha][Sar][hPhe(3-F,4-CF3)][Hyp](Benzyl(4-Cl))[Ac5c][NMeL][NMeD]-Piperidide; lactam N-11), the IC50 was determined as 12 nM.

For `CC[C@H](C)[C@@H]1NC(=O)[C@H](CC(C)C)N(C)C(=O)C[C@@H](C(=O)N2CCCCC2)N(C)C(=O)[C@H](CC(C)C)N(C)C(=O)C2(CCCC2)NC(=O)[C@@H]2C[C@@H](OCc3cccc(Cl)c3)CN2C(=O)[C@H](CCc2ccc(C(F)(F)F)c(F)c2)NC(=O)CN(C)C(=O)[C@H](CC2CCCCC2)N(C)C(=O)CN(C)C(=O)CN(C)C1=O` [US20240148821, Compound 2134] ([NMeL]I[Sar][Sar][NMeCha][Sar][hPhe(3-F,4-CF3)][Hyp](X106)[Ac5c][NMeL][NMeD]-Piperidide; lactam N-11), the IC50 worked out at 9.8 nM.

On to `CC[C@H](C)[C@@H]1NC(=O)[C@H](CC(C)C)N(C)C(=O)C[C@@H](C(=O)N2CCCCC2)N(C)C(=O)[C@H](CC(C)C)N(C)C(=O)C2(CCCC2)NC(=O)[C@@H]2C[C@H](OCc3ccc(OC(F)F)cc3)CN2C(=O)[C@H](CCc2ccc(C(F)(F)F)c(F)c2)NC(=O)CN(C)C(=O)[C@H](CC2CCCCC2)N(C)C(=O)CN(C)C(=O)CN(C)C1=O` [US20240148821, Compound 2135] ([NMeL]I[Sar][Sar][NMeCha][Sar][hPhe(3-F,4-CF3)][cisHyp](X57)[Ac5c][NMeL][NMeD]-Piperidide; lactam N-11), for which it took 88 nM to reach half-maximal inhibition (IC50).

Regarding `CC[C@H](C)[C@@H]1NC(=O)[C@H](CC(C)C)N(C)C(=O)C[C@@H](C(=O)N2CCCCC2)N(C)C(=O)[C@H](CC(C)C)N(C)C(=O)C2(CCCC2)NC(=O)[C@@H]2C[C@H](OCc3cccc(OC)c3)CN2C(=O)[C@H](CCc2ccc(C(F)(F)F)c(F)c2)NC(=O)CN(C)C(=O)[C@H](CC2CCCCC2)N(C)C(=O)CN(C)C(=O)CN(C)C1=O` [US20240148821, Compound 2136] ([NMeL]I[Sar][Sar][NMeCha][Sar][hPhe(3-F,4-CF3)][cisHyp](X94)[Ac5c][NMeL][NMeD]-Piperidide; lactam N-11), the IC50 worked out at 39 nM.

`CC[C@H](C)[C@@H]1NC(=O)[C@H](CC(C)C)N(C)C(=O)C[C@@H](C(=O)N2CCCCC2)N(C)C(=O)[C@H](CC(C)C)N(C)C(=O)C2(CCCC2)NC(=O)[C@@H]2C[C@H](OCc3ccccc3C)CN2C(=O)[C@H](CCc2ccc(C(F)(F)F)c(F)c2)NC(=O)CN(C)C(=O)[C@H](CC2CCCCC2)N(C)C(=O)CN(C)C(=O)CN(C)C1=O` [US20240148821, Compound 2137] ([NMeL]I[Sar][Sar][NMeCha][Sar][hPhe(3-F,4-CF3)][cisHyp](oXylylene)[Ac5c][NMeL][NMeD]-Piperidide; lactam N-11) yielded an IC50 of 69 nM.

In turn, `CC[C@H](C)[C@@H]1NC(=O)[C@H](CC(C)C)N(C)C(=O)C[C@@H](C(=O)N2CCCCC2)N(C)C(=O)[C@H](CC(C)C)N(C)C(=O)C2(CCCC2)NC(=O)[C@@H]2C[C@@H](OCc3ccccc3Cl)CN2C(=O)[C@H](CCc2ccc(C(F)(F)F)c(F)c2)NC(=O)CN(C)C(=O)[C@H](CC2CCCCC2)N(C)C(=O)CN(C)C(=O)CN(C)C1=O` [US20240148821, Compound 2138] ([NMeL]I[Sar][Sar][NMeCha][Sar][hPhe(3-F,4-CF3)][Hyp](X87)[Ac5c][NMeL][NMeD]-Piperidide; lactam N-11) had an IC50 of 8.6 nM.

Turning to `CC[C@H](C)[C@@H]1NC(=O)[C@H](CC(C)C)N(C)C(=O)C[C@@H](C(=O)N2CCCCC2)N(C)C(=O)[C@H](CC(C)C)N(C)C(=O)C2(CCCC2)NC(=O)[C@@H]2C[C@@H](OCc3ccccc3C)CN2C(=O)[C@H](CCc2ccc(C(F)(F)F)c(F)c2)NC(=O)CN(C)C(=O)[C@H](CC2CCCCC2)N(C)C(=O)CN(C)C(=O)CN(C)C1=O` [US20240148821, Compound 2139] ([NMeL]I[Sar][Sar][NMeCha][Sar][hPhe(3-F,4-CF3)][Hyp](oXylylene)[Ac5c][NMeL][NMeD]-Piperidide; lactam N-11), the IC50 amounted to 23 nM.
